In publication PMC9147390, “Evaluation of TILI-2 as an Anti-Tyrosinase, Anti-Oxidative Agent and Its Role in Preventing Melanogenesis Using a Proteomics Approach” (Molecules, 2022):
No end group written: not given here.

Assays:
[1] = ABTS radical scavenging assay; settings: 0 to 50 µM, 6 min, room temperature
Experimental: The ABTS radical scavenging assay was performed with slight modifications of the protocol reported by Re et al.. Briefly, ABTS^+ was generated by the incubation of 7 mM ABTS with 2.45 mM potassium persulfate for 16 h at room temperature. Next, the ABTS radical solution was diluted until the absorbance at 734 nm was 0.7. The diluted ABTS radical solution (100 µL) was mixed with TILI-2 (final concentration 0–200 µM, 10 µL) and incubated at room temperature for 6 min. After that, the absorbance at 734 nm was measured using a SpectraMax M5 plate reader (Molecular Devices, Sunnyvale, CA, USA). The percentage of ABTS radical inhibition was calculated using the equation below: ABTS radical inhibition %=1−A734 sample/A734 control×100 where A734 sample and A734 control are the absorbance at 734 nm of the reaction with and without peptide.
(§1) The data were represented as mean ± SD (n = 3). An ANOVA test according to Duncan (p < 0.05) was used for each comparison (IBM SPSS Statistics 20).

[2] = DPPH radical scavenging assay; settings: 0 to 200 µM, 30 min, room temperature, dark
Experimental: The DPPH radical scavenging assay was performed with slight modifications of the protocol reported by Jandaruang et al.. Briefly, a DPPH radical solution (0.1 mM, 100 µL) was mixed with TILI-2 (final concentration 0–200 µM, 10 µL) and incubated at room temperature in the dark for 30 min. Then, the reaction was monitored by measuring the absorbance of 515 nm using a SpectraMax M5 plate reader (Molecular Devices, Sunnyvale, CA, USA). DPPH radical inhibition (%) was calculated using the equation below: DPPH radical inhibition %=1−A515 sample/A515 control×100 where A515 sample and A515 control are the absorbance at 515 nm of the reaction with and without peptide.
as §1

[3] = test system: RAW 264.7 cells; test: Cell viability assay (MTT), macrophages; format: cell-based; settings: 24 h
Experimental: (§2) Fibroblast cells (NHDF) and B16F1 cells were purchased from the American Type Culture Collection (ATCC, Manassas, VA, USA) and cells were cultured in DMEM supplemented with 10% heat-inactivated FBS, 1% penicillin-streptomycin solution, and 5% L-glutamine. RAW 264.7 cells were purchased from the American Type Culture Collection (ATCC, Manassas, VA, USA) and cells were cultured in RPMI supplemented with 10% heat-inactivated FBS and 1% penicillin-streptomycin solution. These cells were cultured at 37 °C in a 5% CO2 and 90% relative humidity incubator. Cell viability assay was performed using slight modifications of the protocol described by Phosri et al.. Briefly, fibroblast cells (NHDF) (8000 cells/well) and RAW 264.7 cells (25,000 cells/well) were seeded onto a 96-well plate and allowed to recover overnight. Then, the cells were incubated with different concentrations of peptides (final concentration of 0–1400 µM, 100 µL). After 24 h incubation, the culture medium was removed, and MTT was added (0.5% w/v, 100 µL). After incubation for a further 30 min at 37 °C, DMSO was added and the absorbance at 570 nm was measured. The cell viability was calculated using the equation below: Cell viability %=A570 sample/A570 control×100 where A570 sample and A570 control are the absorbance of cells with and without the peptide treatment. The data were represented as mean ± SD (n = 3). […]

[4] = test system: human keratinocyte (HaCaT); settings: new results consistent with previous reports; cited from earlier work
[5] = test system: mouse melanoma (B16F1) cells; settings: B16F1, 350 µM; cited from earlier work
[6] = test system: NHDF cells; test: Cell viability assay (MTT), fibroblasts; format: cell-based, human; settings: 24 h
Experimental: as §2

[7] = test system: mouse B16 melanomas; settings: cited from earlier work
Excerpt: Bioactive peptides are a promising group of depigmenting agents because they are derived from natural sources and therefore display low cytotoxicity.

[8] = target: T1, mushroom tyrosinase (mushroom, UniProt C7FF04 1-392); test: enzyme inhibition kinetics (Lineweaver-Burk plot and secondary plot); monophenolase activity of mushroom tyrosinase, L-tyrosine 0.10-0.80 mM, TILI-2 0-300 µM, 50 mM phosphate buffer pH 6.8, 25 °C, absorbance at 475 nm; Ki from slope versus TILI-2 concentration; settings: both partners purified
T1 construct: mushroom tyrosinase, EC 1.14.18.1, commercial preparation; The commercial preparation may hold several tyrosinase isoforms and other proteins; also called monophenol monooxygenase, EC 1.14.18.1; source: bought: Sigma Aldrich
T1 sequence (C7FF04 1-392): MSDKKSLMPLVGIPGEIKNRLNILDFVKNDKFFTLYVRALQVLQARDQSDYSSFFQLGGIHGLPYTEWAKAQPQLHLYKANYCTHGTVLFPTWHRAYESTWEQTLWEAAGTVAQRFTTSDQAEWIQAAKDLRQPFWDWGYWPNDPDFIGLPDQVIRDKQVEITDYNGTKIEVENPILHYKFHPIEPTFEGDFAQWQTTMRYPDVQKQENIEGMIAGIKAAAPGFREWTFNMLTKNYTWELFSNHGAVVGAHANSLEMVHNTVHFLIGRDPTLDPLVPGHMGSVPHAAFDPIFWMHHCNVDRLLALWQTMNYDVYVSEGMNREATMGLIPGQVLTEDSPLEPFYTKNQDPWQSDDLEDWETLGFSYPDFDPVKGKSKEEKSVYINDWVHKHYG

[9] = target: T1, mushroom tyrosinase; test: cell-based or functional assay

O=C1O[C@H]([C@@H](O)CO)C(O)=C1O [Ascorbic acid, L-Ascorbic acid]
ABTS radical scavenging (range over concentrations) ([1]; 734 nm): 11.64–82.68%
IC50 ([1]; absorbance 734 nm, mean ± SD, n = 3): 15.9 ± 0.16 µM
DPPH radical scavenging (range over concentrations) ([2]; 515 nm): 13.79–82.63%
IC50 ([2]; absorbance 515 nm, mean ± SD, n = 3): 40.09 ± 0.21 µM

CNGVQPK [TILI-2]
Cell viability ([3]; 1400 µM): 105.41 ± 5.42%
cytotoxicity (in words) ([3]; RAW 264.7, 0 to 1400 µM, MTT): not toxic
cytotoxicity (in words) [4]: not toxic
cytotoxicity (in words) [5]: non-toxic
Cell viability ([6]; 1400 µM): 99.65 ± 1.31%
cytotoxicity (in words) ([6]; NHDF, 0 to 1400 µM, MTT): not toxic

LQPSHY [CT-2, CT-2 (LQPSHY), a C-terminus tyrosine peptide derived from rice bran]
melanogenesis (in words) [7]: repressed melanogenesis

B1: Tyrosinase Inhibitor Leucrocin I-2 (TILI-2) (peptide)
peptide: CNGVQPK
notes: N-terminal cysteine-containing heptapeptide, a peptide derivative from Leucrocin I; source: synthetic peptide (GL Biochem Ltd., Fmoc solid-phase synthesis, purity more than 95%)
Ki [8]: 273 µM
IC50 of inhibition of tyrosinase monophenolase activity (L-tyrosine as substrate, A475) [9]: 583 µM
